Experiment: gradient 5% acetonitrile 3 min, to 50% in 2 min, to 85% in 15 min, held 3 min, 100 µL/min
Settings: column: Zorbax Extend-C18 2.1 x 50 mm; eluents: water / acetonitrile, 0.1% formic acid
In short: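 Over 3 months, pure standards in mixtures of ~100 molecules were run by HPLC coupled to a quadrupole time-of-flight mass spectrometer in positive and negative ionization mode. The column was a Zorbax Extend-C18 (2.1 × 50 mm, 1.8 μm) at 100 μL/min, eluted with water and acetonitrile each holding 0.1% formic acid, with 40 μL dead and 900 μL dwell volumes. Retention time was determined from adduct peaks chosen by software and checked manually.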

Row | Compound | RP-LC retention time
1 | O=C(CN1C(=O)NC2(CCCCC2)C1=O)Nc1cc(F)ccc1F | 779 s
2 | COc1ccc(C2(CNC(=O)C(=O)Nc3ccccc3Cl)CCCC2)cc1 | 1300 s
3 | COc1ccc(OCC(=O)N(C)CCc2noc(COc3ccccc3F)n2)cc1 | 848 s
4 | O=C(CC1CCCC1)N1CCCCC1c1nncn1CC1CC1 (centres undefined) | 781 s
5 | Cc1nc2c(sc3nc(-c4ccccc4)ccc32)c(=O)n1CC(=O)Nc1cc(F)cc(F)c1 | 1270 s
6 | CN1C(=O)c2cccnc2Sc2cc(NC(=O)C3CCCO3)ccc21 (centres undefined) | 619 s
7 | CCc1nc(-c2csc(S(=O)(=O)N3CCC(C(=O)NCc4ccc(Cl)cc4)CC3)c2)no1 | 994 s
8 | CCc1ccc(NC(=O)C2(C)Oc3cccnc3NC2=O)cc1 (centres undefined) | 770 s
9 | Cc1ccc(C)c(NS(=O)(=O)c2cc3n(c2)CCN(CC(C)C)C3=O)c1 | 848 s
10 | COC(=O)c1ccc2c(=O)n(-c3cccc(Cl)c3)c(N3CCOCC3)nc2c1 | 998 s
11 | O=C(C1CCN(S(=O)(=O)c2ccc(-c3noc(C4CC4)n3)cc2)CC1)N1CCCC1 | 859 s
12 | CC(=O)NCCc1csc(C2CCN(C(=O)C3(c4ccccc4)CC3)CC2)n1 | 651 s
13 | O=C(NCCC1=CCCCC1)c1nc(Nc2ccccc2)c2ccccc2n1 | 960 s
14 | O=C([C@@H]1C[C@H](F)CN1S(=O)(=O)Cc1ccccc1F)N1CCc2ccccc2C1 | 919 s
15 | COc1ccc(OCC(=O)N(C)CCc2noc(C3CCCCC3)n2)cc1 | 912 s
16 | COc1ccc(S(=O)(=O)NCc2cccnc2-c2cccc(C)c2)cc1 | 695 s
17 | CCN(CC)C(=O)c1ccc2c(c1)nnn2CCNC(=O)Nc1ccc(Br)cc1F | 787 s
18 | CCCCC(=O)Nc1ccc2c(c1)nc(CN1CCN(S(C)(=O)=O)CC1)n2CC | 635 s
19 | CCCNC(=O)C1CCCN(c2ccc(SCC(=O)Nc3ccccc3C(=O)OCC)nn2)C1 (centres undefined) | 750 s
20 | Cc1ccc(NC(=O)C2CCN(S(=O)(=O)c3cn(C(C)C)cn3)CC2)nc1 | 626 s
21 | O=C1c2cccc3c2[C@@H](CCC3)CN1[C@@H]1CN2CCC1CC2 | 664 s
22 | O=[N+]([O-])c1ccc(S(=O)(=O)N2CCN(c3ccc(NCC4CCCO4)nn3)CC2)cc1 (centres undefined) | 568 s
23 | Cn1cnc(S(=O)(=O)N2CCC(CCOc3ccccc3F)C2)c1 (centres undefined) | 828 s

Row | Compound | RP-LC retention time
24 | Cc1ccccc1Cn1nc2ccc(S(=O)(=O)N3CCC(C)CC3)cn2c1=O | 1060 s
25 | Cc1nc2cccnc2n1C1CCN(C(=O)Nc2ccc3c(c2)OCO3)CC1 | 613 s
26 | CN(C)CCNc1oc(COc2ccc(Cl)cc2)nc1C#N | 641 s
27 | CCc1ccc(NC(=O)Cn2c(N3CCCCC3)nc(C)cc2=O)cc1 | 661 s
28 | CCCc1cc(N2CCN(c3ccccn3)CC2)n2ncc(-c3ccccc3)c2n1 | 886 s
29 | c1cn(-c2cc(NC3CCCC3)ncn2)cn1 | 613 s
30 | Cn1c(CNC(=O)CCC2CCCN(c3cc(NC4CC4)ncn3)C2)nc2ccccc21 (centres undefined) | 560 s
31 | COc1cccc(-c2noc(C3CCCN3C(=O)c3ccoc3)n2)c1 (centres undefined) | 854 s
32 | CC(=O)Nc1ccc(C(=O)NC2CCN(c3cc(-c4cccs4)[nH]n3)C2)cc1 (centres undefined) | 641 s
33 | Cc1ccc(NS(=O)(=O)c2cc3c(s2)CCN(C(=O)C2CCC2)C3)c(C)c1 | 943 s
34 | COc1ccc(CNC(=O)Cn2c(=O)cc(-c3nc(C)no3)c3ccccc32)cc1 | 810 s
35 | CC1(c2noc(C3CCOCC3)n2)CCN(Cc2c(F)cccc2Cl)CC1 | 612 s
36 | Cc1nc2c(OCc3ccccc3)cccn2c1CC#N | 655 s
37 | COCc1cc(=O)n(CC(=O)Nc2ccccc2)c(N2CCOCC2)n1 | 767 s
38 | CCOC(=O)c1ccc(NC(=O)N2CCC(CN3CCOCC3)CC2)cc1 | 610 s
39 | CCCCOc1ccc(-c2cc3c4nnc(CCC(=O)N5CCC(C(N)=O)CC5)n4ccn3n2)cc1 | 729 s
40 | O=C(Cc1nnc2c(-c3nc(C4CC4)no3)cccn12)NC1CCCCC1 | 685 s
41 | Cc1ccccc1S(=O)(=O)Nc1ccc(C(=O)N2CCCC2C(=O)NCCC(C)C)cc1 (centres undefined) | 807 s
42 | CC1CCCCC12NCCN=C2NCc1cccc(F)c1 (centres undefined) | 640 s
43 | O=C(NCC1CCCO1)c1nc(-c2ccnc(N3CCCCC3)c2)no1 (centres undefined) | 654 s
44 | O=C(NCc1ccc(F)cc1)c1cn2ccncc2n1 | 667 s
45 | O=C(c1ccc(-c2csc(C3CC3)n2)cc1)N1CCN(c2ccccn2)CC1 | 650 s
46 | CCC(CC)C(=O)N1CCC(N2CCN(CC)C2=O)CC1 | 686 s

Row | Compound | RP-LC retention time
47 | CCn1cnc(S(=O)(=O)N2CCCC(C(=O)N3CCN(c4ncccn4)CC3)C2)c1 (centres undefined) | 657 s
48 | CCOC(=O)c1cn(Cc2ccc(C)cc2)c2nc(C)ccc2c1=O | 861 s
49 | Cc1cc(C)c(S(=O)(=O)N2CCC(C(=O)NCc3csc(-c4cccs4)n3)CC2)cc1C | 1050 s
50 | CCOc1ccc2nc(C(=O)NC3CCCCCC3)cn2n1 | 982 s
51 | Cn1ccc2c(cc(C(=O)N3CCN(c4ccc(F)cc4)CC3)n2C)c1=O | 689 s
52 | COc1cccc(N2CCN(S(=O)(=O)c3nn(C)cc3C(=O)NC3CC3)CC2)c1 | 818 s
53 | CCc1ccc(-c2nc(-c3ccc4nnn(C)c4c3)no2)cc1 | 1150 s
54 | Cc1ccc(F)c(NC(=O)c2cc(C(C)C)n3nccc3n2)c1 | 1250 s
55 | CCN1CCN(c2cc(C)c3cc(NC(=O)COc4ccc(OC)cc4)ccc3n2)CC1 | 597 s
56 | Cc1cc2c(c(=O)n(-c3ccc(F)cc3)c(=O)n2CC(=O)N2CCCc3ccccc32)n1C | 893 s
57 | O=C1CN(S(=O)(=O)c2ccc(Cl)s2)CC2(CCCCC2)N1Cc1ccccc1 | 1180 s
58 | O=C(CC1CCCC1)N1CCCCC1c1nncn1Cc1ccccc1 (centres undefined) | 890 s
59 | O=C(NCc1ccccc1)c1cn(-c2ccc(NC(=O)C3CC3)cn2)cn1 | 725 s
60 | CCOC(=O)CSc1nc2ccccc2n1C | 670 s
61 | CCOc1ccc(-n2nc(-c3nc(-c4ccncc4)no3)c3ccccc3c2=O)cc1 | 1090 s
62 | COc1ccc(OC)c(NC(=O)N2CCCC(C)(C(=O)NCc3ccccc3C)C2)c1 (centres undefined) | 912 s
63 | COc1ccc(NS(=O)(=O)c2c(C)sc(C)c2-c2cc(C(F)(F)F)on2)c(OC)c1 | 1140 s
64 | Cn1c(=O)n(C)c2cc(S(=O)(=O)NCC(=O)O)ccc21 | 566 s
65 | COc1cc(OC)cc(-c2nc(-c3cccc(-c4ccnn4C)c3)no2)c1 | 1160 s
66 | O=S(=O)(c1ccccc1F)N1CC(F)(F)C[C@H]1CN1CCc2ccccc2C1 | 738 s
67 | COc1ccc(NC(=O)c2ccc(-c3ccsc3)nc2)cc1 | 862 s
68 | CC1Oc2ccc(-c3csc(NC(=O)C4CCCCC4)n3)cc2N(C)C1=O (centres undefined) | 1040 s
69 | O=C(NC1CCN(c2cc(-c3ccc(Cl)cc3)[nH]n2)CC1)c1ccc2nc[nH]c2c1 | 634 s

Row | Compound | RP-LC retention time
70 | FC(F)(F)c1cccc(-c2ccc(CNCC3CCNCC3)o2)c1 | 580 s
71 | Cc1cc(C2CCCN2C(=O)c2cc(-c3ccccc3)no2)no1 (centres undefined) | 868 s
72 | CC(C)n1nnc2cc(S(=O)(=O)N3CCCC(C(=O)N4CCN(c5ccccn5)CC4)C3)ccc21 (centres undefined) | 644 s
73 | COCCCNCc1c(C(=O)O)c(C)n(Cc2ccccc2Cl)c1C | 688 s
74 | CCOC(=O)c1c(C)[nH]c(C(=O)N2CCC(C(C)C(=O)NCc3ccc(F)cc3Cl)CC2)c1C (centres undefined) | 863 s
75 | O=C(N[C@@H]1CN(c2ncccn2)C[C@H]1CO)c1ccc2ccccc2n1 | 654 s
76 | Cc1ccc(CN2CCN(C3CCN(C(=O)Nc4ccc5c(c4)OCO5)CC3)C(=O)C2=O)cc1 | 696 s
77 | CC1CCc2nc3ncn(CC(=O)NCCc4ccc(Cl)cc4)c(=O)c3cc2C1 (centres undefined) | 756 s
78 | CCCCn1c(=O)c2ccccc2n(Cc2nc(-c3ccccc3Br)no2)c1=O | 1170 s
79 | Cc1nnc(NC(=O)CN2CC(c3nc(C4CC4)no3)C2)s1 | 537 s
80 | CC1(C)CC(=O)c2cn(-c3ccccc3)c(=O)c(C(=O)NC3CCCC3)c2C1 | 932 s
81 | O=C(NC1CC1)c1ccc(OCC2CCCN(C(=O)c3cc(F)ccc3F)C2)cc1 (centres undefined) | 820 s
82 | Cn1c(N)c(S(=O)(=O)Nc2ccc(Br)cc2)c(=O)n(C)c1=O | 672 s
83 | O=C(Nc1nnc(C2CC(=O)N(c3ccccc3)C2)o1)c1ccc(C(F)(F)F)cc1 (centres undefined) | 793 s
84 | CC(CCc1ccccc1)NC(=O)Cc1nnc(-c2ccc3ncccc3c2)o1 (centres undefined) | 761 s
85 | CCC(=O)N1CCc2sc(C(=O)N3CCN(c4ccccn4)CC3)cc2C1 | 582 s
86 | Cc1ccc2c(c1)N(Cc1ccccc1F)N=C(C(=O)N1CCC(C)CC1)S2(=O)=O | 1090 s
87 | CNc1nc(Nc2ccc(OC)cc2)nc2ccccc12 | 641 s
88 | O=C(Cc1cccs1)Nc1ccc(SCc2nnc(-c3ccccc3)o2)cc1 | 940 s
89 | Cc1nc(-c2cccc(C(=O)N3CCN(c4nc5cccnc5o4)CC3)c2)no1 | 688 s
